In paper PMC5478857, “Metabolic Products of Linalool and Modulation of GABAA Receptors” (Frontiers in Chemistry, 2017):

System: T1, GABAA receptor α1β2γ2
T1 construct: gene GABRA1; α1β2γ2 heteromer transiently expressed in HEK293 cells; with GABAA receptor β2 and γ2 subunits
Assay: whole-cell patch clamp, […] co-applied with […] GABA ([…] of GABA current, P < […])
Format: cell-based

## C=CC(C)(O)CCC=C(C)C (stereo not shown) [Linalool, 3,7-dimethyl-1,6-octadiene-3-ol]
  % of GABA current at 2 mM: 160 ± 14 % of GABA current at 2 mM
